Results: ChEMBL document CHEMBL2203270, “POMA analyses as new efficient bioinformatics' platform to predict and optimise bioactivity of synthesized 3a,4-dihydro-3H-indeno[1,2-c]pyrazole-2-carboxamide/carbothioamide analogues” (Bioorg Med Chem Lett, 2012)
In brackets after ≈: the same amount, converted by molar mass. Activity calls are given as the source filed them. The calls are words filed in the database; no cut-off is given here.

Assays:
Escherichia coli = experiment: Antimicrobial activity against Escherichia coli NCIM 5051 by broth dilution technique; type: functional
Pseudomonas aeruginosa = experiment: Antimicrobial activity against Pseudomonas aeruginosa ATCC 10145 by broth dilution technique; type: functional
[1] = system: Human immunodeficiency virus 1; experiment: Antiviral activity against HIV-1 3B infected in MT4 cells assessed as protection against virus-induced cytopathicity relative to control; type: functional; settings: Human immunodeficiency virus 1, 3B
[2] = system: Human immunodeficiency virus 1; experiment: Antiviral activity against HIV-1 3B infected in MT4 cells assessed as inhibition of virus-induced cytopathicity; type: functional, organism-based; settings: Human immunodeficiency virus 1, 3B
[3] = system: Human immunodeficiency virus 2; experiment: Antiviral activity against HIV-2 ROD infected in MT4 cells assessed as inhibition of virus-induced cytopathicity; type: functional, organism-based; settings: Human immunodeficiency virus 2, ISOLATE ROD
Bacillus subtilis = experiment: Antimicrobial activity against Bacillus subtilis NCIM 2439 by broth dilution technique; type: functional
Candida albicans = experiment: Antimicrobial activity against Candida albicans NCIM 3471 by broth dilution technique; type: functional
[4] = system: Human immunodeficiency virus 2; experiment: Antiviral activity against HIV-2 ROD infected in MT4 cells assessed as protection against virus-induced cytopathicity relative to control; type: functional; settings: Human immunodeficiency virus 2, ISOLATE ROD
Staphylococcus aureus = experiment: Antimicrobial activity against Staphylococcus aureus NCIM 2079 by broth dilution technique; type: functional
[5] = Cytotoxicity against mock-infected human MT4 cells assessed as decrease in cell viability by MTT assay; type: cell-based
Aspergillus niger = experiment: Antimicrobial activity against Aspergillus niger NCIM 1196 by broth dilution technique; type: functional
Mus musculus [6] = experiment: Neurotoxicity in mouse assessed as minimal motor impairment at 100 mg/kg, ip measured at 0.25 hr by rotarod test; type: toxicity, organism-based; set-up: dose 100 mg/kg, route intraperitoneal; settings: in vivo
Mus musculus [7] = experiment: Anticonvulsant activity in mouse assessed as protection against clonic seizure at 100 mg/kg, ip measured at 0.25 hr; type: functional
Mus musculus [8] = experiment: Neurotoxicity in mouse assessed as minimal motor impairment at 100 mg/kg, ip measured at 2 hr by rotarod test; type: toxicity, organism-based; set-up: dose 100 mg/kg, route intraperitoneal; settings: in vivo
Mus musculus [9] = experiment: Anticonvulsant activity in mouse assessed as protection against clonic seizure at 100 mg/kg, ip measured at 4 hr; type: functional, organism-based; set-up: dose 100 mg/kg
Mus musculus [10] = experiment: Anticonvulsant activity in mouse assessed as protection against clonic seizure at 100 mg/kg, ip measured at 1 hr; type: functional
Mus musculus [11] = experiment: Anticonvulsant activity in mouse assessed as protection against clonic seizure at 100 mg/kg, ip measured at 0.5 hr; type: functional
Mus musculus [12] = experiment: Neurotoxicity in mouse assessed as minimal motor impairment at 100 mg/kg, ip measured at 0.5 hr by rotarod test; type: toxicity, organism-based; set-up: dose 100 mg/kg, route intraperitoneal; settings: in vivo
Mus musculus [13] = experiment: Neurotoxicity in mouse assessed as minimal motor impairment at 100 mg/kg, ip measured at 1 hr by rotarod test; type: toxicity, organism-based; set-up: dose 100 mg/kg, route intraperitoneal; settings: in vivo
Mus musculus [14] = experiment: Neurotoxicity in mouse assessed as minimal motor impairment at 100 mg/kg, ip measured at 4 hr by rotarod test; type: toxicity, organism-based; set-up: dose 100 mg/kg, route intraperitoneal; settings: in vivo
Mus musculus [15] = experiment: Anticonvulsant activity in mouse assessed as protection against clonic seizure at 100 mg/kg, ip measured at 2 hr; type: functional, organism-based; set-up: dose 100 mg/kg

Structure (SMILES)	MIC (Escherichia coli)	MIC (Pseudomonas aeruginosa)	IC50 [2]	IC50 [3]	MIC (Bacillus subtilis)	MIC (Candida albicans)	MIC (Staphylococcus aureus)	MIC (Aspergillus niger)	MBC (Escherichia coli)	MBC (Pseudomonas aeruginosa)	Emax [1]	MBC (Bacillus subtilis)	MFC (Candida albicans)	Emax [4]	MBC (Staphylococcus aureus)	CC50 [5]	MFC (Aspergillus niger)	other results
COc1cc2c(cc1OC)C1=NN(C(=O)Nc3ccc(F)c(Cl)c3)C(c3ccc(F)cc3)C1C2 (stereo unspecified)	–	–	> 179 µM	> 179 µM	–	–	–	–	–	–	2%	–	–	7%	–	179 µM	–	Activity (Mus musculus [6]): Non-toxic; Activity (Mus musculus [7]): inactive; Activity (Mus musculus [8]): Non-toxic; Activity (Mus musculus [9]): inactive; Activity (Mus musculus [10]): inactive; Activity (Mus musculus [11]): inactive; Activity (Mus musculus [12]): Non-toxic; Activity (Mus musculus [13]): Non-toxic; Activity (Mus musculus [14]): Non-toxic; Activity (Mus musculus [15]): inactive
COc1cc2c(cc1OC)C1=NN(C(N)=O)C(c3ccccc3Cl)C1C2 (stereo unspecified)	16 µg/mL (≈ 43 µM)	16 µg/mL (≈ 43 µM)	> 6.47 µM	> 6.47 µM	16 µg/mL (≈ 43 µM)	128 µg/mL (≈ 344 µM)	16 µg/mL (≈ 43 µM)	256 µg/mL (≈ 688 µM)	256 µg/mL (≈ 688 µM)	256 µg/mL (≈ 688 µM)	3%	256 µg/mL (≈ 688 µM)	> 512 µg/mL	3%	256 µg/mL (≈ 688 µM)	6.47 µM	> 512 µg/mL	–
COc1cc2c(cc1OC)C1=NN(C(N)=S)C(c3ccccc3)C1C2 (stereo unspecified)	128 µg/mL (≈ 362 µM)	256 µg/mL (≈ 724 µM)	> 28.4 µM	> 28.4 µM	256 µg/mL (≈ 724 µM)	128 µg/mL (≈ 362 µM)	256 µg/mL (≈ 724 µM)	128 µg/mL (≈ 362 µM)	> 512 µg/mL	> 512 µg/mL	2%	> 512 µg/mL	> 512 µg/mL	12%	> 512 µg/mL	28.4 µM	> 512 µg/mL	–
COc1cc2c(cc1OC)C1=NN(C(N)=O)C(c3ccccc3)C1C2 (stereo unspecified)	256 µg/mL (≈ 759 µM)	256 µg/mL (≈ 759 µM)	> 259 µM	> 259 µM	256 µg/mL (≈ 759 µM)	128 µg/mL (≈ 379 µM)	256 µg/mL (≈ 759 µM)	256 µg/mL (≈ 759 µM)	> 512 µg/mL	> 512 µg/mL	2%	> 512 µg/mL	> 512 µg/mL	11%	> 512 µg/mL	259 µM	> 512 µg/mL	–

Further lines, with some results ahead:

MIC (Escherichia coli)	MIC (Pseudomonas aeruginosa)	IC50 [2]	IC50 [3]	MIC (Bacillus subtilis)	MIC (Candida albicans)	MIC (Staphylococcus aureus)	MIC (Aspergillus niger)	Structure (SMILES)	MBC (Escherichia coli)	MBC (Pseudomonas aeruginosa)	Emax [1]	MBC (Bacillus subtilis)	MFC (Candida albicans)	Emax [4]	MBC (Staphylococcus aureus)	CC50 [5]	MFC (Aspergillus niger)	other results
32 µg/mL (≈ 90.3 µM)	32 µg/mL (≈ 90.3 µM)	> 36.9 µM	> 36.9 µM	32 µg/mL (≈ 90.3 µM)	128 µg/mL (≈ 361 µM)	32 µg/mL (≈ 90.3 µM)	128 µg/mL (≈ 361 µM)	COc1cc2c(cc1OC)C1=NN(C(N)=S)C(c3ccncc3)C1C2 (stereo unspecified)	> 512 µg/mL	> 512 µg/mL	2%	> 512 µg/mL	> 512 µg/mL	3%	> 512 µg/mL	36.9 µM	> 512 µg/mL	–
–	–	> 11.8 µM	> 11.8 µM	–	–	–	–	COc1cc2c(cc1OC)C1=NN(C(=O)Nc3ccc(F)c(Cl)c3)C(c3ccccc3Cl)C1C2 (stereo unspecified)	–	–	5%	–	–	1%	–	11.8 µM	–	Activity (Mus musculus [6]): Non-toxic; Activity (Mus musculus [7]; route intraperitoneal): 75%; Activity (Mus musculus [8]): Non-toxic; Activity (Mus musculus [9]): inactive; Activity (Mus musculus [10]): inactive; Activity (Mus musculus [11]): inactive; Activity (Mus musculus [12]): Non-toxic; Activity (Mus musculus [13]): Toxic; Activity (Mus musculus [14]): Non-toxic; Activity (Mus musculus [15]): inactive
8 µg/mL (≈ 20.6 µM)	16 µg/mL (≈ 41.2 µM)	> 6.87 µM	> 6.87 µM	16 µg/mL (≈ 41.2 µM)	64 µg/mL (≈ 165 µM)	16 µg/mL (≈ 41.2 µM)	128 µg/mL (≈ 330 µM)	COc1cc2c(cc1OC)C1=NN(C(N)=S)C(c3ccccc3Cl)C1C2 (stereo unspecified)	128 µg/mL (≈ 330 µM)	256 µg/mL (≈ 660 µM)	0%	128 µg/mL (≈ 330 µM)	> 512 µg/mL	1%	128 µg/mL (≈ 330 µM)	6.87 µM	> 512 µg/mL	–
32 µg/mL (≈ 87.1 µM)	64 µg/mL (≈ 174 µM)	> 150 µM	> 150 µM	128 µg/mL (≈ 348 µM)	2 µg/mL (≈ 5.44 µM)	64 µg/mL (≈ 174 µM)	4 µg/mL (≈ 10.9 µM)	COc1ccc(C2C3Cc4cc(OC)c(OC)cc4C3=NN2C(N)=O)cc1 (stereo unspecified)	> 512 µg/mL	> 512 µg/mL	3%	> 512 µg/mL	2 µg/mL (≈ 5.44 µM)	6%	> 512 µg/mL	150 µM	8 µg/mL (≈ 21.8 µM)	–
4 µg/mL (≈ 10.8 µM)	4 µg/mL (≈ 10.8 µM)	> 39.9 µM	> 39.9 µM	4 µg/mL (≈ 10.8 µM)	32 µg/mL (≈ 86.2 µM)	4 µg/mL (≈ 10.8 µM)	64 µg/mL (≈ 172 µM)	COc1cc2c(cc1OC)C1=NN(C(N)=S)C(c3ccc(F)cc3)C1C2 (stereo unspecified)	8 µg/mL (≈ 21.5 µM)	8 µg/mL (≈ 21.5 µM)	5%	8 µg/mL (≈ 21.5 µM)	> 512 µg/mL	9%	8 µg/mL (≈ 21.5 µM)	39.9 µM	> 512 µg/mL	–
8 µg/mL (≈ 22.5 µM)	8 µg/mL (≈ 22.5 µM)	> 151 µM	> 151 µM	8 µg/mL (≈ 22.5 µM)	128 µg/mL (≈ 360 µM)	8 µg/mL (≈ 22.5 µM)	128 µg/mL (≈ 360 µM)	COc1cc2c(cc1OC)C1=NN(C(N)=O)C(c3ccc(F)cc3)C1C2 (stereo unspecified)	16 µg/mL (≈ 45 µM)	16 µg/mL (≈ 45 µM)	3%	16 µg/mL (≈ 45 µM)	> 512 µg/mL	9%	16 µg/mL (≈ 45 µM)	151 µM	> 512 µg/mL	–
